The values that follow come from patent US7473790B2 (Pfizer Inc., priority 2003, dated 2009).

The structures appear in SMILES notation.

One experiment deals with T1, HCV polymerase (Hepatitis C virus genotype 1b, UniProt P26663).
T1 construct: 2.5 pmoles (0.15 μg) HCV polymerase protein in a final volume of 75 μL
T1 sequence (P26663 2420-3010): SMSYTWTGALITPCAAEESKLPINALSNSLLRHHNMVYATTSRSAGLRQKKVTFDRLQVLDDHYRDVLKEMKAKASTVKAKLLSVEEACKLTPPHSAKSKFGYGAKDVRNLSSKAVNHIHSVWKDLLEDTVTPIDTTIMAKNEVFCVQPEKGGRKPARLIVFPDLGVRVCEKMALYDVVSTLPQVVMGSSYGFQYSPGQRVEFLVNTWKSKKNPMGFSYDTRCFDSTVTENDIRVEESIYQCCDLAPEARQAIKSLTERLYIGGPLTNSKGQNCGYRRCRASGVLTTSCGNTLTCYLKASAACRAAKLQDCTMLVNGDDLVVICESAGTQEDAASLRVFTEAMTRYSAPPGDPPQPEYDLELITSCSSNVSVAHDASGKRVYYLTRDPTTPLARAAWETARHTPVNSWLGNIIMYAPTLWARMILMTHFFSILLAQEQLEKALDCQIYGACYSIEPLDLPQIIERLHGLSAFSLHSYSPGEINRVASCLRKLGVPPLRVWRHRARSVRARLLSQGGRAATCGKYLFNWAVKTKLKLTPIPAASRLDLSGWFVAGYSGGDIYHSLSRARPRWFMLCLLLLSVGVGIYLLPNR
Put plainly: HCV polymerase primer/template-directed transcription assay (32P-GTP incorporation, filter binding). In kind it is biochemical. Particulars: @ 20 uM compound; given where IC50 was impractical to calculate; read-out: percent inhibition. In short, it runs like this: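 Recombinant genotype 1b polymerase (30 nM) extended biotin-dG12 primer on poly(rC)300 template with 1 μM GTP plus α-32P-GTP, pH 7.2, 10 mM MgCl2, 30 min at 30° C, 1% DMSO final. Products captured on DE filters and counted. IC50 fitted from triplicate cpm, with a tight-binding correction applied below 200 nM.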
As a reminder, the inhibition is how much of the control response was suppressed. Regarding `CC(C)Oc1ccc(CCC2(C3CCCC3)CC(O)=C(Cc3nc4ccccc4n3C)C(=O)O2)cc1Cl` (stereo not shown) [B(27), 6-[2-(3-Chloro-4-isopropoxy-phenyl)-ethyl]-6-cyclopentyl-4-hydroxy-3-(1-methyl-1H-benzoimidazol-2-ylmethyl)-5,6-dihydro-pyran-2-one], the inhibition at 20 µM is 47%.

Still in this experiment, the particulars now being: recombinant HCV polymerase; 30 minutes at 30° C.; concentration giving 50% inhibition of polymerase-directed transcription; read-out: IC50.
The IC50 is the concentration needed to halve the response being measured. With `Cc1cc(C)n2nc(CC3=C(O)CC(CCc4ccc(OCC5CC5)c(Cl)c4)(C4CCCC4)OC3=O)nc2n1` (stereo not shown) [B(28), 6-[2-(3-Chloro-4-cyclopropylmethoxy-phenyl)-ethyl]-6-cyclopentyl-3-(5,7-dimethyl-[1,2,4]triazolo[1,5-a]pyrimidin-2-ylmethyl)-4-hydroxy-5,6-dihydro-pyran-2-one], the 50% inhibitory concentration (IC50) was 11 nM.

For the compound `COc1ccc(CCC2(C3CCCC3)CC(O)=C(Cc3nn(C)cc3Cl)C(=O)O2)cc1Cl` (stereo not shown) [B(29), 6-[2-(3-Chloro-4-methoxy-phenyl)-ethyl]-3-(4-chloro-1-methyl-1H-pyrazol-3-ylmethyl)-6-cyclopentyl-4-hydroxy-5,6-dihydro-pyran-2-one], the half-inhibitory concentration (IC50) turned out to be 220 nM.

As to `COc1ccc(CCC2(C3CCCC3)CC(O)=C(Cc3ncc[nH]3)C(=O)O2)cc1Cl` (stereo not shown) [B(30), 6-[2-(3-Chloro-4-methoxy-phenyl)-ethyl]-6-cyclopentyl-4-hydroxy-3-(1H-imidazol-2-ylmethyl)-5,6-dihydro-pyran-2-one], the IC50 is 2000 nM.

Take `Cc1cc(C)n2nc(CC3=C(O)CC(CCc4ccc(OC(C)C)c(Cl)c4)(C4CCCC4)OC3=O)nc2n1` (stereo not shown) [B(31), 6-[2-(3-Chloro-4-isopropoxy-phenyl)-ethyl]-6-cyclopentyl-3-(5,7-dimethyl-[1,2,4]triazolo[1,5-a]pyrimidin-2-ylmethyl)-4-hydroxy-5,6-dihydro-pyran-2-one]: the IC50 was 3 nM.

In the case of `COc1cc(OC)c(CCC2(C3CCCC3)CC(O)=C(Cc3nn(C)cc3Cl)C(=O)O2)cc1Cl` (stereo not shown) [B(32), 6-[2-(5-Chloro-2,4-dimethoxy-phenyl)-ethyl]-3-(4-chloro-1-methyl-1H-pyrazol-3-ylmethyl)-6-cyclopentyl-4-hydroxy-5,6-dihydro-pyran-2-one], the IC50 worked out at 70 nM.

Turning to `Cc1cc(C)n2nc(CC3=C(O)CC(CCc4ccc(OCC5CC5)c(F)c4)(C4CCCC4)OC3=O)nc2n1` (stereo not shown) [B(33), 6-Cyclopentyl-6-[2-(4-cyclopropylmethoxy-3-fluoro-phenyl)-ethyl]-3-(5,7-dimethyl-[1,2,4]triazolo[1,5-a]pyrimidin-2-ylmethyl)-4-hydroxy-5,6-dihydro-pyran-2-one], the half-maximal inhibitory concentration (IC50) was found to be 136 nM.

`Cc1cc(C)n2nc(CC3=C(O)CC(CCc4ccc(OC(C)C)cc4)(C4CCCC4)OC3=O)nc2n1` (stereo not shown) [B(34)]: the IC50 was found to be 30 nM.

As for `COc1cc(OC)c(CCC2(C3CCCC3)CC(O)=C(Cc3c[nH]c(C)n3)C(=O)O2)cc1Cl` (stereo not shown) [B(35), 6-[2-(5-Chloro-2,4-dimethoxy-phenyl)-ethyl]-6-cyclopentyl-4-hydroxy-3-(2-methyl-1H-imidazol-4-ylmethyl)-5,6-dihydro-pyran-2-one], the IC50 was determined as 70 nM.

Turning to `Cc1cc(C)n2nc(CC3=C(O)CC(CCc4ccc5c(c4)OCCO5)(C4CCCC4)OC3=O)nc2n1` (stereo not shown) [B(36), 6-Cyclopentyl-6-[2-(2,3-dihydro-benzo[1,4]dioxin-6-yl)-ethyl]-3-(5,7-dimethyl-[1,2,4]triazolo[1,5-a]pyrimidin-2-ylmethyl)-4-hydroxy-5,6-dihydro-pyran-2-one], the concentration for half-maximal inhibition (IC50) turned out to be 42 nM.

With `CCOc1c(Cl)cc(CCC2(C3CCCC3)CC(O)=C(Cc3nc4nc(C)cc(C)n4n3)C(=O)O2)cc1Cl` (stereo not shown) [B(37), 6-Cyclopentyl-6-[2-(3,5-dichloro-4-ethoxy-phenyl)-ethyl]-3-(5,7-dimethyl-[1,2,4]triazolo[1,5-a]pyrimidin-2-ylmethyl)-4-hydroxy-5,6-dihydro-pyran-2-one], the half-maximal inhibitory concentration (IC50) amounted to 8 nM.

For the compound `Cc1cc(C)n2nc(CC3=C(O)CC(CCc4ccc(Cl)c(Cl)c4)(C4CCCC4)OC3=O)nc2n1` (stereo not shown) [B(38), 6-Cyclopentyl-6-[2-(3,4-dichloro-phenyl)-ethyl]-3-(5,7-dimethyl-[1,2,4]triazolo[1,5-a]pyrimidin-2-ylmethyl)-4-hydroxy-5,6-dihydro-pyran-2-one], the 50% inhibitory concentration (IC50) was found to be 21 nM.

Turning to `Cc1cc(C)n2nc(CC3=C(O)CC(CCCCC4CCCCC4)(C4CCCC4)OC3=O)nc2n1` (stereo not shown) [B(39), 6-(4-Cyclohexyl-butyl)-6-cyclopentyl-3-(5,7-dimethyl-[1,2,4]triazolo[1,5-a]pyrimidin-2-ylmethyl)-4-hydroxy-5,6-dihydro-pyran-2-one], the IC50 came to 29 nM.

`Cc1cc(C)n2nc(CC3=C(O)CC(CCc4ccc5c(c4)OC(F)(F)C(F)(F)O5)(C4CCCC4)OC3=O)nc2n1` (stereo not shown) [B(40), 6-Cyclopentyl-3-(5,7-dimethyl-[1,2,4]triazolo[1,5-a]pyrimidin-2-ylmethyl)-4-hydroxy-6-[2-(2,2,3,3-tetrafluoro-2,3-dihydro-benzo[1,4]dioxin-6-yl)-ethyl]-5,6-dihydro-pyran-2-one]: the 50% inhibitory concentration (IC50) was 14 nM.

Take `CCCOc1ccc(CCC2(C3CCCC3)CC(O)=C(Cc3nc4nc(C)cc(C)n4n3)C(=O)O2)cc1` (stereo not shown) [B(41), 6-Cyclopentyl-3-(5,7-dimethyl-[1,2,4]triazolo[1,5-a]pyrimidin-2-ylmethyl)-4-hydroxy-6-[2-(4-propoxy-phenyl)-ethyl]-5,6-dihydro-pyran-2-one]: the half-maximal inhibitory concentration (IC50) worked out at 120 nM.

Consider `Cc1cc(C)n2nc(CC3=C(O)CC(CCc4ccc(OCc5c(C)noc5C)cc4)(C4CCCC4)OC3=O)nc2n1` (stereo not shown) [B(42), 6-Cyclopentyl-6-{2-[4-(3,5-dimethyl-isoxazol-4-ylmethoxy)-phenyl]-ethyl}-3-(5,7-dimethyl-[1,2,4]triazolo[1,5-a]pyrimidin-2-ylmethyl)-4-hydroxy-5,6-dihydro-pyran-2-one], for which the IC50 was determined as 210 nM.

On to `COc1ccc(CCC2(C3CCCC3)CC(O)=C(Cc3nc4cc(Cl)ccc4n3C)C(=O)O2)cc1Cl` (stereo not shown) [B(43), 6-[2-(3-chloro-4-methoxyphenyl)ethyl]-3-[(5-chloro-1-methyl-1H-benzimidazol-2-yl)methyl]-6-cyclopentyl-4-hydroxy-5,6-dihydro-2H-pyran-2-one], for which the 50% inhibitory concentration (IC50) turned out to be 360 nM.

On to `Cc1cc(C)n2nc(CC3=C(O)CC(CCc4ccc(C(C)C)c(Cl)c4)(C4CCCC4)OC3=O)nc2n1` (stereo not shown) [B(44), 6-[2-(3-chloro-4-isopropylphenyl)ethyl]-6-cyclopentyl-3-[(5,7-dimethyl[1,2,4]triazolo[1,5-a]pyrimidin-2-yl)methyl]-4-hydroxy-5,6-dihydro-2H-pyran-2-one], for which the IC50 came to 53 nM.

As for `Cc1cc(C)n2nc(CC3=C(O)CC(CCc4ccc(C(C)C)c(F)c4)(C4CCCC4)OC3=O)nc2n1` (stereo not shown) [B(45), 6-cyclopentyl-3-[(5,7-dimethyl[1,2,4]triazolo[1,5-a]pyrimidin-2-yl)methyl]-6-[2-(3-fluoro-4-isopropylphenyl)ethyl]-4-hydroxy-5,6-dihydro-2H-pyran-2-one], the 50% inhibitory concentration (IC50) is 53 nM.

Take `CCc1cc(CCC2(C3CCCC3)CC(=O)C(Cc3nc4nc(C)cc(C)n4n3)C(=O)O2)ccc1F` (stereo not shown) [B(46), 6-cyclopentyl-3-[(5,7-dimethyl[1,2,4]triazolo[1,5-a]pyrimidin-2-yl)methyl]-6-[2-(3-ethyl-4-fluorophenyl)ethyl]dihydro-2H-pyran-2,4(3H)-dione]: the IC50 was found to be 20 nM.

With `COc1ccc(CCC2(C3CCCC3)CC(=O)C(Cc3nccs3)C(=O)O2)cc1Cl` (stereo not shown) [B(47), 6-[2-(3-chloro-4-methoxyphenyl)ethyl]-6-cyclopentyl-3-(1,3-thiazol-2-ylmethyl)dihydro-2H-pyran-2,4(3H)-dione], the IC50 turned out to be 800 nM.

As for `COc1ccc(CCC2(C3CCCC3)CC(=O)C(Cc3nccn3C)C(=O)O2)cc1Cl` (stereo not shown) [B(48), 6-[2-(3-chloro-4-methoxyphenyl)ethyl]-6-cyclopentyl-3-[(1-methyl-1H-imidazol-2-yl)methyl]dihydro-2H-pyran-2,4(3H)-dione], the half-inhibitory concentration (IC50) was found to be 700 nM.

Turning to `Cc1cc(C)n2nc(CC3C(=O)CC(CCc4cccc(C(C)C)c4)(C4CCCC4)OC3=O)nc2n1` (stereo not shown) [B(49), 6-cyclopentyl-3-[(5,7-dimethyl[1,2,4]triazolo[1,5-a]pyrimidin-2-yl)methyl]-6-[2-(3-isopropylphenyl)ethyl]dihydro-2H-pyran-2,4(3H)-dione], the half-maximal inhibitory concentration (IC50) is 10 nM.

`Cc1cc(C)n2nc(CC3C(=O)CC(CCc4ccc(C(C)C)cc4)(C4CCCC4)OC3=O)nc2n1` (stereo not shown) [B(50), 6-cyclopentyl-3-[(5,7-dimethyl[1,2,4]triazolo[1,5-a]pyrimidin-2-yl)methyl]-6-[2-(4-isopropylphenyl)ethyl]dihydro-2H-pyran-2,4(3H)-dione]: the IC50 stood at 90 nM.

With `Cc1cc(C)n2nc(CC3C(=O)CC(CCc4cccc(Cl)c4)(C4CCCC4)OC3=O)nc2n1` (stereo not shown) [B(51), 6-[2-(3-chlorophenyl)ethyl]-6-cyclopentyl-3-[(5,7-dimethyl[1,2,4]triazolo[1,5-a]pyrimidin-2-yl)methyl]dihydro-2H-pyran-2,4(3H)-dione], the concentration for half-maximal inhibition (IC50) was 72 nM.

Take `COc1cc(OC)c(CCC2(C3CCCC3)CC(O)=C(Cc3nc4nc(C)cc(C)n4n3)C(=O)O2)cc1Cl` (stereo not shown) [B(52), 6-[2-(5-chloro-2,4-dimethoxyphenyl)ethyl]-6-cyclopentyl-3-[(5,7-dimethyl[1,2,4]triazolo[1,5-a]pyrimidin-2-yl)methyl]dihydro-2H-pyran-2,4(3H)-dione]: the IC50 turned out to be 170 nM.

`COc1ccc(CCC2(C3CCCC3)CC(O)=C(Cc3nc(C)nn3C)C(=O)O2)cc1Cl` (stereo not shown) [B(53), 6-[2-(Chloro-4-methoxyphenyl)ethyl]-6-cyclopentyl-3-[(1,3-dimethyl-1H-1,2,4-triazol-5-yl)methyl]-4-hydroxy-5,6-dihydro-2H-pyran-2-one]: the IC50 turned out to be 350 nM.

On to `COc1ccc(CCC2(C3CCCC3)CC(O)=C(Cc3nc(C)cc(=O)[nH]3)C(=O)O2)cc1Cl` (stereo not shown) [B(54), 2-({6-[-(3-chloro-4-methoxyphenyl)ethyl]-6-cyclopentyl-4-hydroxy-2-oxo-5,6-dihydro-2H-pyran-3-yl}methyl)-6-methylpyrimidin-4(3H)-one], for which the IC50 came out at 300 nM.
